Data: the supplement of paper PMC10307832

Legend:
Test in all cases: relative viability (nuclei count vs DMSO), 5 days (fraction); higher = more cells survive
[1] = compound: OCc1c[nH]c2ccccc12 [Indole-3-carbinol] + CC1(C)CCC(c2ccc(Cl)cc2)=C(CN2CCN(c3ccc(C(=O)NS(=O)(=O)c4ccc(N[C@H](CCN5CCOCC5)CSc5ccccc5)c(S(=O)(=O)C(F)(F)F)c4)cc3)CC2)C1 [Navitoclax] (partner 0.5 µM)
In short: (§1)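 Relative viability is defined as nuclei in treated wells over nuclei in vehicle wells. Duplicate plates were run and medians reported. Lung cancer cell lines in 1536-well plates were dosed by pin tool one day after seeding, with one drug or with a fixed anchor-drug dose plus five library-drug doses (not always all listed) in √10 steps, and nuclei were counted after 5 days.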

[2] = compound: OCc1c[nH]c2ccccc12 [Indole-3-carbinol] + COc1cc2c(Oc3ccc(NC(=O)C4(C(=O)Nc5ccc(F)cc5)CC4)cc3F)ccnc2cc1OCCCN1CCOCC1 [Foretinib] (partner 0.25 µM)
In short: as §1

[3] = compound: OCc1c[nH]c2ccccc12 [Indole-3-carbinol] + COc1cccc2cc(-c3nc([C@H]4CC[C@H](C(=O)O)CC4)n4ncnc(N)c34)[nH]c12 [OSI-027] (partner 0.5 µM)
In short: as §1

[4] = compound: OCc1c[nH]c2ccccc12 [Indole-3-carbinol] + Cc1cc(Nc2cc(N3CCN(C)CC3)nc(Sc3ccc(NC(=O)C4CC4)cc3)n2)n[nH]1 [Tozasertib] (partner 0.1 µM)
In short: as §1

[5] = compound: OCc1c[nH]c2ccccc12 [Indole-3-carbinol] + Nc1nc2[nH]cc(CCc3ccc(C(=O)N[C@@H](CCC(=O)O)C(=O)O)cc3)c2c(=O)[nH]1 [Pemetrexed] (partner 0.2 µM)
In short: as §1

Cell Line | relative viability ([1]; first compound 0.253 µM) | relative viability ([1]; first compound 0.8 µM) | relative viability ([1]; first compound 2.53 µM) | relative viability ([1]; first compound 8 µM) | relative viability ([2]; first compound 0.253 µM) | relative viability ([2]; first compound 0.8 µM) | relative viability ([2]; first compound 2.53 µM) | relative viability ([2]; first compound 8 µM) | relative viability ([3]; first compound 0.253 µM) | relative viability ([3]; first compound 0.8 µM) | relative viability ([3]; first compound 2.53 µM) | relative viability ([3]; first compound 8 µM) | relative viability ([4]; first compound 0.253 µM) | relative viability ([4]; first compound 0.8 µM) | relative viability ([4]; first compound 2.53 µM) | relative viability ([4]; first compound 8 µM) | relative viability ([5]; first compound 0.253 µM) | relative viability ([5]; first compound 0.8 µM) | relative viability ([5]; first compound 2.53 µM) | relative viability ([5]; first compound 8 µM)
HCC-366 | 1.03 | 1.02 | 0.986 | 0.948 | 0.959 | 0.861 | 0.902 | 0.926 | 0.954 | 0.777 | 0.898 | 0.881 | 0.103 | 0.125 | 0.0939 | 0.196 | 0.198 | 0.202 | 0.179 | 0.169
HCC-827 | 1.04 | 1.09 | 1.05 | 0.947 | 1.07 | 1.02 | 1.03 | 1.1 | 0.751 | 0.659 | 0.723 | 0.808 | 0.4 | 0.398 | 0.429 | 0.383 | 0.261 | 0.258 | 0.278 | 0.255
HOP-62 | 1.09 | 0.817 | 1.28 | 0.851 | 1.12 | 1.23 | 1.16 | 1.05 | 0.802 | 0.796 | 0.791 | 0.789 | 0.365 | 0.432 | 0.391 | 0.332 | 0.284 | 0.296 | 0.388 | 0.376
IA-LM | 0.811 | 0.896 | 0.858 | 0.732 | 1.07 | 1.37 | 1.11 | 1.09 |  |  |  |  |  |  |  |  |  |  |  | 
LC-2-ad | 0.644 | 0.553 | 0.376 | 0.399 | 0.921 | 0.852 | 1.05 | 0.889 | 0.888 | 0.776 | 0.826 | 0.787 | 0.404 | 0.417 | 0.537 | 0.468 | 0.282 | 0.276 | 0.246 | 0.263
LCLC-97TM1 | 0.408 | 0.387 | 0.499 | 0.465 | 0.982 | 0.973 | 1.03 | 0.983 | 0.381 | 0.527 | 0.386 | 0.668 | 0.324 | 0.299 | 0.235 | 0.251 | 0.167 | 0.197 | 0.185 | 0.154
LCLC-103H |  |  |  |  | 0.691 | 0.783 | 0.669 | 0.639 | 0.452 | 0.513 | 0.428 | 0.431 | 0.499 | 0.554 | 0.538 | 0.433 | 0.444 | 0.493 | 0.462 | 0.468
LK-2 | 0.777 | 0.769 | 1.1 | 0.821 | 1.39 | 1.2 | 1.42 | 1.07 | 0.198 | 0.145 | 0.189 | 0.215 | 0.162 | 0.167 | 0.194 | 0.17 | 0.273 | 0.216 | 0.313 | 0.358
LOU-NH91 | 0.71 | 0.599 | 0.673 | 0.74 | 0.927 | 0.964 | 0.963 | 0.924 | 0.747 | 0.671 | 0.722 | 0.689 | 0.65 | 0.693 | 0.749 | 0.634 | 0.432 | 0.404 | 0.401 | 0.396
LU99A | 0.802 | 0.847 | 0.832 | 0.73 | 0.828 | 0.87 | 0.769 | 0.777 | 0.307 | 0.355 | 0.291 | 0.284 | 0.224 | 0.317 | 0.315 | 0.257 | 0.169 | 0.163 | 0.187 | 0.175
LXF-289 | 0.966 | 0.96 | 0.904 | 0.927 | 0.973 | 0.978 | 0.968 | 0.945 | 0.838 | 0.855 | 0.783 | 0.754 | 0.228 | 0.21 | 0.289 | 0.199 | 0.944 | 1.02 | 0.934 | 0.851
NCI-H358 |  |  |  |  | 0.805 | 0.69 | 0.73 | 0.73 | 0.792 | 0.734 | 0.859 | 0.64 | 0.097 | 0.131 | 0.113 | 0.0974 | 0.17 | 0.161 | 0.182 | 0.185
NCI-H522 |  |  |  |  |  |  |  |  | 0.646 | 0.821 | 0.685 | 0.836 | 0.63 | 0.525 | 0.567 | 0.538 | 0.979 | 1.12 | 1.08 | 1.04
NCI-H650 |  |  |  |  | 1.05 | 1.02 | 1.04 | 0.953 | 0.559 | 0.512 | 0.482 | 0.482 | 0.743 | 0.767 | 0.805 | 0.681 | 0.959 | 0.851 | 0.937 | 1.04
NCI-H661 |  |  |  |  | 1.02 | 1.04 | 1.03 | 1.01 | 0.644 | 0.725 | 0.784 | 0.704 | 0.335 | 0.334 | 0.359 | 0.348 | 0.898 | 0.891 | 0.945 | 0.891
NCI-H727 | 0.359 | 0.355 | 0.364 | 0.497 | 0.744 | 0.891 | 1.05 | 0.886 | 0.544 | 0.517 | 0.548 | 0.771 | 0.512 | 0.73 | 0.599 | 0.554 |  |  |  | 
NCI-H1792 | 0.655 | 0.619 | 0.737 | 0.644 |  |  |  |  | 0.733 | 0.695 | 0.726 | 0.692 |  |  |  |  | 0.984 | 0.993 | 0.704 | 0.858
SW 900 |  |  |  |  | 0.796 | 1.05 | 0.877 | 0.819 | 0.574 | 0.706 | 0.592 | 0.599 | 0.548 | 0.726 | 0.616 | 0.548 | 0.49 | 0.443 | 0.519 | 0.495
